# T1: human SARP-2 (Homo sapiens, UniProt Q8N474)
# T1 construct: endogenous in cells; host or cells: hOB-03-C5 and hOB-03-CE6 human osteoblast cell lines treated with PGE2
# T1 sequence (Q8N474 32-314): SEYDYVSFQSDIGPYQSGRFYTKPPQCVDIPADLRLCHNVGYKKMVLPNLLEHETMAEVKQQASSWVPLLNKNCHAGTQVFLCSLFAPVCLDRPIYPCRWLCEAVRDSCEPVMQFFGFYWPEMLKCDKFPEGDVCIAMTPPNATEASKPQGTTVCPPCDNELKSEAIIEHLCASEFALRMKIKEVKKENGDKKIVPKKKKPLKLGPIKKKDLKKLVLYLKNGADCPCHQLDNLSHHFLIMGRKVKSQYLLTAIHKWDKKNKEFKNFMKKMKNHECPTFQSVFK
# What was measured:
# [1] = biological target: T1, human SARP-2; experiment: Reversal of PGE2-accelerated hOB cell death, Coulter cell counter; assay type: cell-based; conditions: co-treatment with PGE2, hOB-03-C5 and hOB-03-CE6 cells
# Procedure: (§1) These experiments were performed in a similar manner to the ones depicted in FIG. 10. However, for these experiments, the cells were co-treated with either vehicle control (i.e., 0.1% ethanol) or PGE2 in the absence or presence of sense (control) or antisense initiation-site directed phosphorothioate oligonucleotides to human SARP-2. The results are presented as either the % relative to the day 0 control (i.e., ˜200,000 cells per well of a 6 well plate) or as the % relative to the vehicle treated control. The results of this experiment indicate that co-treatment of the hOB cells with the antisense oligonucleotide to SARP-2 reverses the ability of PGE2 to accelerate the rate of cell death, while co-treatment with the sense (control) oligonucleotide as no effect on this process.
# as §1, with “The results of this experiment indicate that co-treatment of the hOB cells with the antisense oligonucleotide to SARP-2 reverses the ability of PGE2 to accelerate the rate of cell death, while co-treatment with the sense (control) oligonucleotide as no effect on this process.” left out
# [2] = test system: hOB-01-C1-PS-09 cells; experiment: Osteocalcin secretion from hOB-01-C1-PS-09 cells; assay type: cell-based, human
# Source text: (§2) Unlike the parental hOB-01-C1 cell line, the hOB-01-C1-PS-09 cells proliferate 2- to 3-times faster at the permissive temperature with a doubling time of once every 2–3 days (FIG. 22A). However, like the parental cells, the hOB-01-C1-PS-09 cells stop dividing at the non-permissive temperature (FIG. 22A). […] Alkaline phosphatase and osteocalcin are two important markers of the osteocytic lineage.
# However, the secosteroid up-regulates production of this bone-specific matrix protein 11-fold when the cells are incubated at 39° C. It should be noted that the basal levels of alkaline phosphatase expression and osteocalcin secretion by the hOB-01-C1-PS-09 cells are similar to the parental cell line. Thus, both morphologically and biochemically, the hOB-01-C1-PS-09 cells resemble the parental hOB-01-C1 cells and are therefore a reliable in vitro model to study human pre-osteocyte biology.
# [3] = test system: hOB-01-C1-PS-09 cells; experiment: Alkaline phosphatase activity in hOB-01-C1-PS-09 cells; assay type: cell-based, human
# Source text: as §2
# In addition to vitamin D3 and PTH, the hOB-01-C1-PS-09 cells also respond to additional bone-active agents: for example, glucocorticoids and transforming growth factor (TGF)-β1. Treatment of the cells with the synthetic glucocorticoid, dexamethasone, up-regulates alkaline phosphatase activity approximately 2-fold at 34° C. (FIG. 25), and this effect is once again enhanced when the cells are incubated at 39° C.
# [4] = test system: hOB SFRP mRNA; experiment: hOB SFRP mRNA levels after treatment with various agents (method not given); assay type: cell-based, human; conditions: for effect on hOB SFRP message expression: various hOB cell lines; for effect on hOB SFRP mRNA levels: hOB-03-C5 cells or hOB-03-CE6 cells
# [5] = test system: Wnt signaling; experiment: TCF-luciferase reporter gene assay of Wnt signaling; assay type: cell-based, human; conditions: transfected cDNA, hOB-01-C1-PS-09 or hOB-02-C1-PS-02 cells
# Procedure: SARP-2 or human Frzb-1 expression plasmids downregulates Wnt signaling (when compared to the pcDNA3.1 empty vector control) in the hOB cells as measured by the TCF-luciferase reporter gene assay. This assay is an authentic measurement of Wnt signaling and β-catenin nuclear activity.
# In order to determine if the up-regulation of SFRP-1/FRP-1/SARP-2 gene expression results in an antagonism of the Wnt signaling pathway, hOB-03-CE6 cells were treated with PGE2 and the resulting cells probed with β-catenin monoclonal antibody. Overexpression of Wnt proteins in cells up-regulates a signaling protein known as β-catenin (reviewed in Moon et al. 1997 Cell 88: 725–728; Barth et al. 1997 Curr. Opin. Cell Biol. 9: 683–690; and Nusse 1997 Cell 89: 321–323). […] Therefore, hOB-03-CE6 cells were plated and treated with PGE2 as described in Example 1, except that total cellular protein was extracted and a Western blot analysis for β-catenin was performed using a monoclonal antibody to the protein (Transduction Laboratories) as previously described (Bodine et al. 1996 Endocrinology 137: 4592–4604; Melkonyan et al. 1997 Proc. Natl. Acad. Sci. USA 94: 13636–13641). […] Both human and rat SFRP-1/FRP-1/SARP-2, as well as human Frzb-1/FrzB/Fritz, suppressed TCF-luciferase activity in the hOB cells.
molecule,measurement,setting,value
"5′-GGCATGGGCATCGGGCGC-3′ (phosphorothioate, further chemistry not given here) [sense (control) oligonucleotide, sense (control) initiation-site directed phosphorothioate oligonucleotide to human SARP-2]",effect on the ability of PGE2 to accelerate the rate of hOB cell death,[1],no effect
C=C1CC[C@H](O)C/C1=C/C=C1\CCC[C@]2(C)[C@@H]([C@H](C)CCCC(C)C)CC[C@@H]12 [vitamin D3],osteocalcin secretion,[2]; 34° C.,unable to induce
same,up-regulation of osteocalcin production,[2]; 39° C.,11 fold
same,enhancement of up-regulation of alkaline phosphatase activity at 39° C.,[3]; cells incubated at 39° C.,about 4 fold
same,effect on hOB SFRP message expression,[4],suppresses
CC1=C(/C=C/C(C)=C/C=C/C(C)=C/C(=O)O)C(C)(C)CCC1 [all-trans-retinoic acid],effect on hOB SFRP mRNA levels,[4],increases
C[C@@H]1C[C@H]2[C@@H]3CCC4=CC(=O)C=C[C@]4(C)[C@@]3(F)[C@@H](O)C[C@]2(C)[C@@]1(O)C(=O)CO [dexamethasone],up-regulation of alkaline phosphatase activity,[3]; 34° C.,approximately 2 fold
CC1=C(/C=C/C(C)=C\C=C\C(C)=C\C(=O)O)C(C)(C)CCC1 [9-cis-retinoic acid],effect on hOB SFRP mRNA levels,[4],increases
C[C@]12CC[C@@H]3c4ccc(O)cc4CC[C@H]3[C@@H]1CC[C@@H]2O [17β-estradiol],effect on hOB SFRP message expression,[4],suppresses
insulin-like growth factor (IGF)-I: insulin-like growth factor (IGF)-I,effect on hOB SFRP message expression,[4],suppresses
"5′-GCGCCCGATGCCCATGCC-3′ (phosphorothioate, further chemistry not given here) [antisense oligonucleotide to SARP-2, antisense initiation-site directed phosphorothioate oligonucleotide to human SARP-2]",effect on the ability of PGE2 to accelerate the rate of hOB cell death,[1],reversed
interleukin (IL)-1β: interleukin (IL)-1β,effect on hOB SFRP mRNA levels,[4],increases
human Frzb-1/FrzB/Fritz: human Frzb-1 expression plasmid transfected into hOB cells (protein) AACEPVRIPLCKSLPWNMTKMPNHLHHSTQANAILAIEQFEGLLGTHCSPDLLFFLCAMYAPICTIDFQHEPIKPCKSVCERARQGCEPILIKYRHSWPENLACEELPVYDRGVCISPEAIVTADGADFPMDSSNGNCRGASSERCKCKPIRATQKTYFRNNYNYVIRAKVKEIKTKCHDVTAVVEVKEILKSSLVNIPRDTVNLYTSSGCLCPPLNVNEEYIIMGYEDEERSRLLLVEGSIAEKWKDRLGKKVKRWDMKLRHLGLSKSDSSNSDSTQSQKSGRNSNPRQARN,TCF-luciferase activity,[5],suppressed

# — patent US7098372B1, “Pharmaceutical compositions and methods of using secreted frizzled related protein” (Wyeth, priority 1999, dated 2006)
